Test results reported in ChEMBL document CHEMBL3217732, “Inhibition of Pseudomonas aeruginosa biofilms with a glycopeptide dendrimer containing D-amino acids” (Medchemcomm, 2011).
Calls of active or inactive are those of the source. No cut-off for these calls is given here. Where a SMILES comes first, the peptide text is derived from it. Bridges are numbered along the chain shown (N, C = ends). Roman numbers before positions name the chains, in order. Side-chain parts run from the residue outwards. The star is where a group is joined. Acetyl(C-α-L-Fucp) = C[C@@H]1O[C@@H](CC(=O)*)[C@@H](O)[C@H](O)[C@@H]1O

What was measured:
[1] = Binding affinity to Pseudomonas aeruginosa lectin LecB after 1 hr by enzyme-linked lectin assay
Pseudomonas aeruginosa [2] = assay: Inhibition of wild type Pseudomonas aeruginosa PAO1 biofilm formation at 0.05 mM after 24 hrs using acridine orange staining by steel coupon assay; assay type: functional, organism-based
[3] = Stability of the compound in 100 mM of tris buffer at pH 7.5 after 48 hrs in presence of chymotrypsin; assay type: ADME; conditions: isolated protein, pH 7.5, 48 h
Pseudomonas aeruginosa [4] = assay: Ratio of FD2 IC50 to compound IC50 for Pseudomonas aeruginosa lectin LecB after 1 hr by enzyme-linked lectin assay
Pseudomonas aeruginosa [5] = assay: Inhibition of Pseudomonas aeruginosa clinical isolate A014 biofilm formation at 0.05 mM after 24 hrs using acridine orange staining by steel coupon assay; assay type: functional, organism-based
Pseudomonas aeruginosa [6] = assay: Inhibition of Pseudomonas aeruginosa clinical isolate A035 biofilm formation at 0.05 mM after 24 hrs using acridine orange staining by steel coupon assay; assay type: functional, organism-based
Serum = assay: Metabolic stability in human serum; assay type: ADME, cell-free
Pseudomonas aeruginosa [7] = assay: Ratio of L-fucose IC50 to compound IC50 for Pseudomonas aeruginosa lectin LecB after 1 hr by enzyme-linked lectin assay
[8] = Stability of the compound in 100 mM of tris buffer at pH 7.5 after 48 hrs in presence of trypsin; assay type: ADME; conditions: isolated protein, pH 7.5, 48 h
Pseudomonas aeruginosa [9] = assay: Inhibition of Pseudomonas aeruginosa clinical isolate A021 biofilm formation at 0.05 mM after 24 hrs using acridine orange staining by steel coupon assay; assay type: functional, organism-based
[10] = Half life in human serum; assay type: ADME, cell-free
[11] = Stability of the compound in 100 mM of tris buffer at pH 7.5 after 30 mins in presence of trypsin; assay type: ADME; conditions: isolated protein, pH 7.5, 0.5 h
[12] = Stability of the compound in 100 mM of tris buffer at pH 7.5 after 30 mins in presence of chymotrypsin; assay type: ADME; conditions: isolated protein, pH 7.5, 0.5 h

| SMILES | IC50 [1] [nM] | inhibition (Pseudomonas aeruginosa [2]) | Stability [3] | Ratio IC50 (Pseudomonas aeruginosa [4]) | inhibition (Pseudomonas aeruginosa [5]) | inhibition (Pseudomonas aeruginosa [6]) | Stability (Serum) | Ratio IC50 (Pseudomonas aeruginosa [7]) | Stability [8] | inhibition (Pseudomonas aeruginosa [9]) | half-life [10] [h] | Stability [11] | Stability [12] |
| --- | --- | --- | --- | --- | --- | --- | --- | --- | --- | --- | --- | --- | --- |
| CC(C)C[C@@H](NC(=O)[C@@H](Cc1cnc[nH]1)NC(=O)[C@@H](CCCCNC(=O)[C@@H](CC(C)C)NC(=O)[C@@H](CCCCN)NC(=O)[C@@H](Cc1ccccc1)NC(=O)[C@@H](CCCCNC(=O)[C@@H](CC(C)C)NC(=O)[C@H]1CCCN1C(=O)[C@@H](CCCCN)NC(=O)C[C@@H]1O[C@@H](C)[C@@H](O)[C@@H](O)[C@@H]1O)NC(=O)[C@@H](CC(C)C)NC(=O)[C@H]1CCCN1C(=O)[C@@H](CCCCN)NC(=O)C[C@@H]1O[C@@H](C)[C@@H](O)[C@@H](O)[C@@H]1O)NC(=O)[C@@H](CC(C)C)NC(=O)[C@@H](CCCCN)NC(=O)[C@@H](Cc1ccccc1)NC(=O)[C@@H](CCCCNC(=O)[C@@H](CC(C)C)NC(=O)[C@H]1CCCN1C(=O)[C@@H](CCCCN)NC(=O)C[C@@H]1O[C@@H](C)[C@@H](O)[C@@H](O)[C@@H]1O)NC(=O)[C@@H](CC(C)C)NC(=O)[C@H]1CCCN1C(=O)[C@@H](CCCCN)NC(=O)C[C@@H]1O[C@@H](C)[C@@H](O)[C@@H](O)[C@@H]1O)C(N)=O | 660 | Active | Stable | 4.7 | Active | Active | Stable | 16.7 | Stable | Active |  |  |  |
| C[C@H](O)[C@@H](O)[C@@H](O)[C@H](O)C=O [L-FUCOSE] | 11000 |  |  |  |  |  |  | 1 |  |  |  |  |  |
| CC(C)C[C@H](NC(=O)[C@H](Cc1cnc[nH]1)NC(=O)[C@H](CCCCNC(=O)[C@H](CC(C)C)NC(=O)[C@H](CCCCN)NC(=O)[C@H](Cc1ccccc1)NC(=O)[C@H](CCCCNC(=O)[C@H](CC(C)C)NC(=O)[C@@H]1CCCN1C(=O)[C@H](CCCCN)NC(=O)C[C@@H]1O[C@@H](C)[C@@H](O)[C@@H](O)[C@@H]1O)NC(=O)[C@H](CC(C)C)NC(=O)[C@@H]1CCCN1C(=O)[C@H](CCCCN)NC(=O)C[C@@H]1O[C@@H](C)[C@@H](O)[C@@H](O)[C@@H]1O)NC(=O)[C@H](CC(C)C)NC(=O)[C@H](CCCCN)NC(=O)[C@H](Cc1ccccc1)NC(=O)[C@H](CCCCNC(=O)[C@H](CC(C)C)NC(=O)[C@@H]1CCCN1C(=O)[C@H](CCCCN)NC(=O)C[C@@H]1O[C@@H](C)[C@@H](O)[C@@H](O)[C@@H]1O)NC(=O)[C@H](CC(C)C)NC(=O)[C@@H]1CCCN1C(=O)[C@H](CCCCN)NC(=O)C[C@@H]1O[C@@H](C)[C@@H](O)[C@@H](O)[C@@H]1O)C(N)=O | 150 |  |  |  |  |  |  | 73.3 |  |  |  |  |  |
| CC[C@H](C)[C@H](NC(=O)[C@H](Cc1cnc[nH]1)NC(=O)[C@H](CCCCNC(=O)[C@@H](NC(=O)[C@H](CCCCN)NC(=O)[C@H](Cc1ccccc1)NC(=O)[C@H](CCCCNC(=O)[C@H](CC(C)C)NC(=O)[C@@H]1CCCN1C(=O)[C@H](CCCCN)NC(=O)C[C@@H]1O[C@@H](C)[C@@H](O)[C@@H](O)[C@@H]1O)NC(=O)[C@H](CC(C)C)NC(=O)[C@@H]1CCCN1C(=O)[C@H](CCCCN)NC(=O)C[C@@H]1O[C@@H](C)[C@@H](O)[C@@H](O)[C@@H]1O)[C@@H](C)CC)NC(=O)[C@@H](NC(=O)[C@H](CCCCN)NC(=O)[C@H](Cc1ccccc1)NC(=O)[C@H](CCCCNC(=O)[C@H](CC(C)C)NC(=O)[C@@H]1CCCN1C(=O)[C@H](CCCCN)NC(=O)C[C@@H]1O[C@@H](C)[C@@H](O)[C@@H](O)[C@@H]1O)NC(=O)[C@H](CC(C)C)NC(=O)[C@@H]1CCCN1C(=O)[C@H](CCCCN)NC(=O)C[C@@H]1O[C@@H](C)[C@@H](O)[C@@H](O)[C@@H]1O)[C@@H](C)CC)C(N)=O (I: {Acetyl(C-α-L-Fucp)}-KPLK([Leu-Pro-Lys-Acetyl(C-α-L-Fucp)])FKIKHI-NH2 / II: {Acetyl(C-α-L-Fucp)}-KPLK([Leu-Pro-Lys-Acetyl(C-α-L-Fucp)])FKI; amide I:8-II:C) | 140 |  |  |  |  |  |  | 78.6 |  |  | 60 | Unstable | Unstable |
